Consider 16 compounds from patent US11014884B2 (Global Blood Therapeutics, Inc., priority 2018, dated 2021).

Test [1] deals with Purified hemoglobin (Homo sapiens, UniProt P69905). Description: Hemoglobin assay: oxygen equilibrium curves with purified hemoglobin, change in p50. The format is biochemical. As to conditions: purified hemoglobin 25 μM, compound 25 μM, 1 h at 37° C. As to the method:
Hemoglobin assay: Oxygen equilibrium curves (OECs) were collected as described above. Purified hemoglobin (25 μM) was incubated for 1 h at 37° C. with the indicated compounds (30 μM for compounds 6, 7, 8, and 11; 25 μM for compounds 55 to 67 (Enantiomer 1 and Enantiomer 2)) in 5 ml of TES (2-[[1,3-dihydroxy-2-(hydroxymethyl)propan-2-yl]amino]ethanesulfonic acid)/saline buffer prior to measurements. The samples were then oxygenated with compressed air within the Hemox Analyzer and the OECs were collected during deoxygenation as previously described. p50 values were obtained using a non-linear regression analysis, and Δp50(%) was calculated as described above.

Test [2] concerns the target T1, hemoglobin (Homo sapiens, UniProt P69905).
T1 construct: from tissue; host or cells: whole blood (red blood cells)
Description: Whole blood assay: oxygen equilibrium curves (Hemox Analyzer), change in p50. In kind it is cell-based. As to conditions: equimolar to hemoglobin, 1 h at 37° C. As to the method: Oxygen equilibrium curves (OECs) were collected using a TCS Hemox Analyzer (TCS Scientific Company, New Hope, Pa., USA) to measure changes in the binding affinity of 02 to Hb. Whole blood was incubated for 1 h at 37° C. with the indicated compounds in an equimolar ratio of hemoglobin to compound and diluted into TES (2-[[1,3-dihydroxy-2-(hydroxymethyl)propan-2-yl]amino]ethanesulfonic acid)/saline buffer prior to measurements. For example, for whole blood at 20% hematocrit [Hct], which corresponds to 1 mM Hb, a compound concentration of 1 mM was used (for example, for compounds 1-53), and the incubated sample diluted 50- to 100-fold. The concentration for compound 54 was 1.7 mM and in equimolar ratio to hemoglobin. The diluted samples were then oxygenated with compressed air within the Hemox Analyzer, and the OECs were collected during deoxygenation as previously described (Guarnone et al., Haematologica, 1995, 80, 426-430). p50 (partial pressure of 02 at which Hb is 50% saturated with 02) values were obtained using a non-linear regression analysis. Percentage change in p50 [Δp50(%)] was calculated as follows: Δp50(%)=[(p50 of control)−p50 with compound)/p50 control]×100.

[3] abbreviates: whole blood 20% Hct (1 mM Hb), compound 1 mM.

T1 sequence (P69905 2-142 limits assumed): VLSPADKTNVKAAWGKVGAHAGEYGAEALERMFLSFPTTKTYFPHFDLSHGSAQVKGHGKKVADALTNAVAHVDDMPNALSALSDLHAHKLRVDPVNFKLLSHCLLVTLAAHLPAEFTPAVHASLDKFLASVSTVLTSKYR
T1 sequence (P68871 2-147 partner limits assumed): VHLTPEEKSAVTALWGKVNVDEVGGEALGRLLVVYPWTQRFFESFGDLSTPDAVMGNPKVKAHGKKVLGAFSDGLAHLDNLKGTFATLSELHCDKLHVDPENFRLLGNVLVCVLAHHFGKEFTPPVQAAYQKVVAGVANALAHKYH
Chain of Purified hemoglobin (P69905 2-142 limits assumed): as the sequence (P69905 2-142 limits assumed) above
Chain of Purified hemoglobin (P68871 2-147 partner limits assumed): as the sequence (P68871 2-147 partner limits assumed) above

On to `O=Cc1cccc(C(=O)N2CCC[C@@H](COc3cccc(O)c3C=O)C2)c1O` [Compound 58], for which the “Delta-p50 (%)” value in test [1] was determined as 71%.

In the case of `O=Cc1c(O)cccc1OCC1CSCCN1C(=O)c1cccc(O)c1C=O` (single isomer, unassigned) [67 (Enantiomer 2), 2-((4-(2-formyl-3-hydroxybenzoyl)thiomorpholin-3-yl)methoxy)-6-hydroxybenzaldehyde], the “Delta-p50 (%)” value in test [1] was found to be 69.3%.

Turning to `O=Cc1c(O)cccc1OC[C@H]1CN(C(=O)c2cccc(O)c2C=O)CCO1` [Compound 62, 2-[[(2R)-4-(2-formyl-3-hydroxybenzoyl)morpholin-2-yl]methoxy]-6-hydroxybenzaldehyde], the “Delta-p50 (%)” value in test [1] was 69%.

As for `O=Cc1cc(C(=O)N2CCC[C@@H](COc3cccc(O)c3C=O)C2)ccc1O` [Compound 61, 2-[[(3R)-1-(3-formyl-4-hydroxybenzoyl)piperidin-3-yl]methoxy]-6-hydroxybenzaldehyde], the “Delta-p50 (%)” value in test [1] is 71%.

On to `O=Cc1ccccc1C(=O)N1CCC[C@H]1COc1cccc(O)c1C=O` [Compound 20, 2-{[(2S)-1-(2-formylbenzoyl)pyrrolidin-2-yl]methoxy}-6-hydroxybenzaldehyde], for which the “Delta-p50 (%)” value in test [2] (setting [3]) is given as 32%.

Turning to `O=Cc1cccc(N2C(=O)CC[C@H]2COc2cccc(O)c2C=O)c1` [Compound 5, 2-{[(2S)-1-(3-formylphenyl)-5-oxopyrrolidin-2-yl]methoxy}-6-hydroxybenzaldehyde], the “Delta-p50 (%)” value in test [2] (setting [3]) was 79%.

As for `O=Cc1c(O)cccc1OC[C@@H]1CCCN1C(=O)c1cccc(O)c1C=O` [Compound 30, 2-[(2S)-2-[(2-formyl-3-hydroxyphenoxy)methyl]pyrrolidine-1-carbonyl]-6-hydroxybenzaldehyde], the “Delta-p50 (%)” value in test [2] (setting [3]) was 45%.

Consider `COc1cccc(C(=O)N2CCCC[C@@H]2COc2cccc(O)c2C=O)c1C=O` [Compound 49, 2-[(2R)-2-[(2-formyl-3-hydroxyphenoxy)methyl]piperidine-1-carbonyl]-6-methoxybenzaldehyde], for which, in test [2] (setting [3]), the “Delta-p50 (%)” value came out at 59%.

On to `O=Cc1cccc(C(=O)N2CCC[C@H](COc3cccc(O)c3C=O)C2)c1` [Compound 22, 2-{[(3S)-1-(3-formylbenzoyl)piperidin-3-yl]methoxy}-6-hydroxybenzaldehyde], for which, in test [2] (setting [3]), the “Delta-p50 (%)” value is given as 68.5%.

In the case of `O=Cc1ncc(-c2ncccc2COc2cccc(O)c2C=O)o1` [Compound 14, 5-(3-((2-formyl-3-hydroxyphenoxy)methyl)pyridin-2-yl)oxazole-2-carbaldehyde], the “Delta-p50 (%)” value in test [2] (setting [3]) is listed as 17.8%.

In the case of `CCOc1cccc(C(=O)N2CCCC[C@H]2COc2cccc(O)c2C=O)c1C=O` [Compound 39, 2-ethoxy-6-[(2S)-2-[(2-formyl-3-hydroxyphenoxy)methyl]piperidine-1-carbonyl]benzaldehyde], the “Delta-p50 (%)” value in test [2] (setting [3]) is 79.5%.

Regarding `CC1(COc2cccc(O)c2C=O)COCCN1C(=O)c1cccc(O)c1C=O` (stereo not shown) [Compound 54, 2-((4-(2-formyl-3-hydroxybenzoyl)-3-methylmorpholin-3-yl)methoxy)-6-hydroxybenzaldehyde], the “Delta-p50 (%)” value in test [2] (whole blood, compound 1.7 mM) stood at 72.6%.

For `O=Cc1ccc(C(=O)N2CCC[C@@H](COc3cccc(O)c3C=O)C2)cc1` [Compound 28, 2-{[(3R)-1-(4-formylbenzoyl)piperidin-3-yl]methoxy}-6-hydroxybenzaldehyde], the “Delta-p50 (%)” value in test [2] (setting [3]) turned out to be 45%.

Consider `O=Cc1nc(-c2ncccc2COc2cccc(O)c2C=O)ccc1O` [Compound 19, 3′-[(2-formyl-3-hydroxyphenoxy)methyl]-5-hydroxy-[2,2′-bipyridine]-6-carbaldehyde], for which the “Delta-p50 (%)” value in test [2] (setting [3]) is listed as 11%.

`O=Cc1ccccc1C(=O)N1CCCCC[C@H]1COc1cccc(O)c1C=O` [Compound 37]: the “Delta-p50 (%)” value in test [2] (setting [3]) is 31.5%.

For the compound `O=Cc1c(O)cccc1OC[C@@H]1CCCCCN1C(=O)c1cccc(O)c1C=O` (stereo in doubt) [Compound 38, 2-{2-[(2-formyl-3-hydroxyphenoxy)methyl]azepane-1-carbonyl}-6-hydroxybenzaldehyde], the “Delta-p50 (%)” value in test [2] (setting [3]) came out at 33.8%.
